The target in the test is T1, Apelin receptor (Homo sapiens, UniProt P35414).
T1 sequence (P35414 whole entry): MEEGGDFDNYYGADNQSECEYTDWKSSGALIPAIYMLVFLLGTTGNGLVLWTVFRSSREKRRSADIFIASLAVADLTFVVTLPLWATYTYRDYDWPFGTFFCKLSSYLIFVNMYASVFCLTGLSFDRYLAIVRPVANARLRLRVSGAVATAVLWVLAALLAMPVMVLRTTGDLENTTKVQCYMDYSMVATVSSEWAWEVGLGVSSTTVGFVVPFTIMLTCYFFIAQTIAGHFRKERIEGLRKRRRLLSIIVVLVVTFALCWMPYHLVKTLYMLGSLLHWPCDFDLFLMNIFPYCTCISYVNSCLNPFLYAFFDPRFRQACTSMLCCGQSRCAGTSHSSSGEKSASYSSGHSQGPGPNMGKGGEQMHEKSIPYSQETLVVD
Briefly: [35S]GTPgammaS Binding. The procedure:
The human APJ receptor was cloned by polymerase chain reaction and the gene encoding the receptor was subcloned in pFLAG-CMV -3 expression vector (Sigma, Saint Louis, Mo. USA) in-house at Amgen. A GTPγS binding assay was performed on membranes prepared from CHO cells stably expressing human APJ receptor. The optimum experimental conditions for the concentrations of GDP, MgCl2, and NaCl in the assay buffer were initially determined. The assay was performed in 9 μL assay buffer [20 mM HEPES, pH 7.5, 5 mM MgCl2, 100 mM NaCl and 0.1% (w/v) BSA], 1 μL of diluted test compound (starting with 0.75 mM, 2-fold serial dilution with DMSO, total 22 points), 10 μL of 18 μM GDP (final concentration of 3 μM GDP), 20 μL of […] membrane protein expressing human APJ receptor captured with WGA PS beads (final concentration of 5 μg per well), and 20 μL of 0.3 nM [35S]GTPγS (final concentration is 0.1 nM [35S]GTPγS)(Perkin Elmer Life and Analytical Sciences, Waltham USA). […] Incubation was at RT for 90 min and the microplate was read using a ViewLux ultra HTS Microplate Imager (PerkinElmer, Inc.). All the results presented are means of several independent experiments and analyzed by non-linear regression methods using the commercially available program Prism (GraphPad, San Diego, Calif.) providing the EC50 values detailed in Table 13.
A general note: Binding of GTPγS marks nucleotide exchange on a G protein.

For orientation: EC50 means the concentration that produces a half-maximal response. In turn, `Cc1cnc([C@H](OC(C)C)[C@H](C)S(=O)(=O)Nc2nnc3n2-c2c(F)cccc2/C=C\CC3)nc1` (single isomer, unassigned) [US11149040, Example 49.0] yielded an EC50 of 98 nM.

(Values after BindingDB's records for patent US11149040 (Amgen, 2021).)
